Results as given in ChEMBL document CHEMBL1143204, “Syntheses and in vitro evaluation of arylsulfone-based MMP inhibitors with heterocycle-derived zinc-binding groups (ZBGs)” (Bioorg Med Chem Lett, 2008).

Legend:
[1] = target: Matrix metalloproteinase-9 (Homo sapiens, UniProt P14780); assay: Inhibition of MMP9
[2] = target: 72 kDa type IV collagenase (Homo sapiens, UniProt P08253); assay: Inhibition of MMP2
[3] = target: T1, Interstitial collagenase (Homo sapiens, UniProt P03956); assay: Inhibition of MMP1
T1 sequence (P03956 whole entry): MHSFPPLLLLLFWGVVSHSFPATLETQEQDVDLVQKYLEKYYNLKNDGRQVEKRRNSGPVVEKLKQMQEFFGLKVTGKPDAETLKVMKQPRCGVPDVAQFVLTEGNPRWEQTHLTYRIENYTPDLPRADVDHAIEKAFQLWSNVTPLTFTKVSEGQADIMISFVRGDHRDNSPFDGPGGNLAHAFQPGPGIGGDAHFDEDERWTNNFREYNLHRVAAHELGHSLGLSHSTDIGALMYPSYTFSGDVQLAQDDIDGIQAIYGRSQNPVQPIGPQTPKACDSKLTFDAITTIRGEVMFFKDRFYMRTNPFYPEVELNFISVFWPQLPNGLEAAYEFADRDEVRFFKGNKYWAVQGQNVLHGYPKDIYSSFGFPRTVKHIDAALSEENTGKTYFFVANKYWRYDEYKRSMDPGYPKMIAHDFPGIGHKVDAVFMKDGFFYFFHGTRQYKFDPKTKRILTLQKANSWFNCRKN

[4] = target: Collagenase 3 (Homo sapiens, UniProt P45452); assay: Inhibition of MMP13
[5] = target: Stromelysin-1 (Homo sapiens, UniProt P08254); assay: Inhibition of MMP3
Chain of Stromelysin-1 (P08254 whole entry): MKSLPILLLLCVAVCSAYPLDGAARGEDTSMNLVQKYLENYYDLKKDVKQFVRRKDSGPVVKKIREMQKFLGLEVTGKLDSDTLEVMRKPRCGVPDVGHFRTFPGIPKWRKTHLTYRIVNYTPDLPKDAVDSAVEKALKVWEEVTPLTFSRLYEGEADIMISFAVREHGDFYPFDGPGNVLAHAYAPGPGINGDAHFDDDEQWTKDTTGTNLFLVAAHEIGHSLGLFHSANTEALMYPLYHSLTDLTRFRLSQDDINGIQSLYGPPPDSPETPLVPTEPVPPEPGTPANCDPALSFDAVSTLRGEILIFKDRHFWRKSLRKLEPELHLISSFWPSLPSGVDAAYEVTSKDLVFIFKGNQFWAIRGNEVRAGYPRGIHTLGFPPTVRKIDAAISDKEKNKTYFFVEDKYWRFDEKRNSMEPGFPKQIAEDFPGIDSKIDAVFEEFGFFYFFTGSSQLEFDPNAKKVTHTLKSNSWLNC

Chain of Matrix metalloproteinase-9 (P14780 whole entry): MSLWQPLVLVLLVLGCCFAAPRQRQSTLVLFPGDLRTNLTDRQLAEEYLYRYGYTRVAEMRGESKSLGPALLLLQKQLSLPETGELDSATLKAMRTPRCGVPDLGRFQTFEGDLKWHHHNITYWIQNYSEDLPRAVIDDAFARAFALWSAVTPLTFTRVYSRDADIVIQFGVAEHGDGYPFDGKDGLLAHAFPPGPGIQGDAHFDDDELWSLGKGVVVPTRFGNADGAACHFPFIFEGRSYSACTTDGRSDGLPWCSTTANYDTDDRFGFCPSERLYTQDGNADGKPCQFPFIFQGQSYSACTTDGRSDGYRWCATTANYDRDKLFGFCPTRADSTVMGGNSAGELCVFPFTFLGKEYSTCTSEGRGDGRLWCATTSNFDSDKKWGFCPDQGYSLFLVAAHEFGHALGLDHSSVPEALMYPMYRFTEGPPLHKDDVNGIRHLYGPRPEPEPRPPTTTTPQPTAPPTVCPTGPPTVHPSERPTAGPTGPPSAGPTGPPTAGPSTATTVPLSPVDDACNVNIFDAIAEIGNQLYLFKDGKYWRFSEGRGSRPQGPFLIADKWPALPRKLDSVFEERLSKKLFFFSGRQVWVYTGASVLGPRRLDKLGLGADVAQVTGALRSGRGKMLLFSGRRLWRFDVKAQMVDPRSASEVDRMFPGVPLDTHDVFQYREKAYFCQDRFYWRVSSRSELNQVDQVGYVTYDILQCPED
Chain of 72 kDa type IV collagenase (P08253 whole entry): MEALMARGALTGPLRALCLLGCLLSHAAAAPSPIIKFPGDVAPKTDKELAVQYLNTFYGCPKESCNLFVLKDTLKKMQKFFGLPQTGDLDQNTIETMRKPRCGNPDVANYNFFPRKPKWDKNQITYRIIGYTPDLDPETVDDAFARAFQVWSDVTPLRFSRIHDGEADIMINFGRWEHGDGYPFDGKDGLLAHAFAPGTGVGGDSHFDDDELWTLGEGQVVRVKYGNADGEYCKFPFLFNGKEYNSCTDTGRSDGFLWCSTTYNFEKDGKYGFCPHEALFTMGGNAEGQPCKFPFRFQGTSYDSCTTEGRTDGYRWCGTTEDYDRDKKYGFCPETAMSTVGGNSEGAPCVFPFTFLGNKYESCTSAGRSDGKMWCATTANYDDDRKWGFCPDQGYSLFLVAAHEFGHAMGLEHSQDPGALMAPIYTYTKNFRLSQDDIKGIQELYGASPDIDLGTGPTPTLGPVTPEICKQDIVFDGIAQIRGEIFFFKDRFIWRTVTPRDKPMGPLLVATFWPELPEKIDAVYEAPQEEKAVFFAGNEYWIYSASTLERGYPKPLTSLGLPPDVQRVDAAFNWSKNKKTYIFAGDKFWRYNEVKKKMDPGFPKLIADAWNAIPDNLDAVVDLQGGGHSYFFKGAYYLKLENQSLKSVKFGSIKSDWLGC

Structure (SMILES) | IC50 [1] [nM] | IC50 [2] [nM] | IC50 [3] [nM] | IC50 [4] [nM] | IC50 [5] [nM]
COc1ccc(-c2ccc(S(=O)(=O)C3CCCCN(O)C3=O)cc2)cc1 (stereo unspecified) | > 1000 | > 1000 |  |  | 
COc1ccc(Oc2ccc(S(=O)(=O)Cc3cccn(O)c3=O)cc2)cc1 |  |  | > 1000 | 13.4 | 308
O=C1[C@H](CS(=O)(=O)c2ccc(Oc3ccccc3)cc2)NCCCN1O | 21.1 | 36.8 | > 1000 | 11 | 964
COc1ccc(Oc2ccc(S(=O)(=O)Cn3cccc(O)c3=O)s2)cc1 | 13.9 | 72 |  |  | 
O=c1c(O)cccn1CS(=O)(=O)c1ccc(Oc2ccc(Cl)cc2)cc1 | 16.4 | 10.6 |  |  | 
O=c1c(O)cccn1CS(=O)(=O)c1ccc(Oc2ccc(OC(F)(F)F)cc2)cc1 | 4 | 12.6 | > 1000 | 7.3 | 203
COc1ccc(-c2ccc(S(=O)(=O)Cn3cccc(O)c3=O)cc2)cc1 | > 1000 | > 1000 |  |  | 
Cc1ccc(S(=O)(=O)Cn2cccc(O)c2=O)cc1 | 809 |  |  |  | 
COc1ccc(Oc2ccc(S(=O)(=O)C3CCCCCN(O)C3=O)cc2)cc1 (stereo unspecified) | > 1000 | > 1000 |  |  | 
O=C1C(S(=O)(=O)c2ccc(Oc3ccc(OC(F)(F)F)cc3)cc2)CCCCN1O (stereo unspecified) | 21.5 | 59.4 |  |  | 
